# In patent US12685777B2, “Compositions, systems, and methods for modulating a target gene” (The Board of Trustees of the Leland Stanford Junior …, priority 2022, dated 2026):
# Tests used:
# [1] = system: DLBCL cells; assay: Killing of DLBCL cell lines (cell viability); assay type: cell-based
# Description: 30,000 cells were plated in 100 μL media per well of a 96 well plate and treated with drug for indicated times and doses. A resazurin-based indicator of cell health (PrestoBlue, ThermoFisher #P50200) was added for 1.5 hours after which the fluorescence ratio at 560/590 nm was recorded. The background fluorescence was subtracted and the signal was normalized to DMSO-treated cells. EC50 measurements on cell lines were done with 4 biological repeats by separate cell passages maintained by 3 independent investigators. Fit of dose-response curves to data and statistical analysis was performed using drc package in R using the four-parameter log-logistic function.
# It was noted that neither Bl3812 nor JQ1 produced complete loss of cell viability (FIG. 28, Panel A) leaving a resistant population of cells as has been previously reported.
# [2] = system: BRD4, Pol II ser 2 phos, H3K27ac occupancy; assay: ChIP-seq of BRD4, Pol II ser 2 phos, H3K27ac in KARPAS422 cells; assay type: cell-based, human
# Description: Cells were washed in PBS and crosslinked for 12 minutes in CiA Fix Buffer (50 mM HEPES pH 8.0, 1 mM EDTA, 0.5 mM EGTA, 100 mM NaCl) with addition of formaldehyde to a final concentration of 1%. The crosslinking reaction was quenched by glycine added at 0.125 M final concentration. Crosslinked cells were centrifuged at 1,000×g for 5 minutes. Nuclei were prepared by 10 minute incubation of resuspended pellet in CiA NP-Rinse 1 buffer (50 mM HEPES pH 8.0, 140 mM NaCl, 1 mM EDTA, 10% glycerol, 0.5% IPEGAL CA-630, 0.25% Triton X100) followed by wash in CIA NP-Rinse 2 buffer (10 mM Tris pH 8.0, 1 mM EDTA, 0.5 mM EGTA, 200 mM NaCl). The pellet was resuspended in CiA Covaris Shearing Buffer (0.1% SDS, 1 mM EDTA pH 8.0, 10 mM Tris HCl pH 8.0) with 1000× protease inhibitors (Roche) and sonicated for 20 minutes with Covaris E220 sonicator (Peak Power 140, Duty Factor 5.0, Cycles/Burst 200). The distribution of fragments was confirmed with agarose gel. 300 μL of chromatin per ChIP was used with anti-BRD4 antibodies (Cell Signaling E2A7X). 50 μg of chromatin was used with anti-Pol II ser 2 phos (Abcam ab5095) and anti-Pol II ser 5 phos (ActiveMotif 3E8) antibodies. 25 μg of chromatin was used with anti-H3K27ac (Abcam ab4729). For each Pol II ser 2 phos, Pol II ser 5 phos, and H3K27ac ChIP, exactly 20 ng (for Pol II ser 2 phos and ser 5 phos) or 50 ng (for H3K27ac) Drosophila chromatin (ActiveMotif #53083) was spiked-in with 2 μL spike-in-chromatin-specific antibody (ActiveMotif #61686). After overnight incubation at 4° C. in IP buffer (50 mM HEPES pH 7.5, 300 mM NaCl, 1 mM EDTA, 1% Triton X100, 0.1% sodium deoxycholic acid salt (DOC), 0.1% SDS), Ips were washed twice with IP buffer, once with DOC buffer (10 mM Tris pH 8, 0.25 M LiCl, 0.5% IPEGAL CA-630, 0.5% sodium deoxycholic acid salt (DOC), 1 mM EDTA), and, once with 10 mM Tris/1 mM EDTA buffer (TE) pH 8. Ips and inputs were reverse-crosslinked in TE/0.5% SDS/0.5 μg/μL proteinase K for 55° C./3 hours then 65° C./18 hours, then DNA was purified using a PCR cleanup spin column (Takara #74609). The sequencing library preparation was performed using NEBNext Ultra II DNA kit (#E7645S). Libraries were sequenced on an Illumina NovaSeq (Novogene).
# The data quality was checked using fastqc. The raw reads were trimmed from adapters with trim_galore (parameters: —paired—255 Ilumine) and raw reads were aligned to hg38 human genome assembly and the dm6 fly genome assembly using bowtie2 (parameters: —local—maxins 1000). Low quality reads, duplicated reads and reads with multiple alignments were removed using samtools (Li et al., Bioinformatics (2009) 25: 2078-2079) and Picard (broadinstitute.github.io/picard/). Macs2 was used to map position of peaks with FDR cutoff of 0.05. Bedtools (Quinlan et al, Bioinformatics (2010) 26: 841-842) was used to find consensus set of peaks by merging peaks across multiple conditions (bedtools merge), count number of reads in peaks (bedtools intersect—c) and generate genome coverage (bedtools genomecov-bga). deepTools (Ramirez et al., Nucleic Acids Research (2016) 44: W160-W165). […] This procedure was carried out on a per-antigen basis (i.e., the H3K27ac ChIPs were treated separately from the Pol II ser 2 phos ChIPs which were separate from the Poll II ser 5 phos ChIPs). The average percentage of reads in each sample that mapped to the fly genome was 1.8±1.4% (mean±s.d.). All browser tracks and metaprofiles shown were calculated with spike-in normalized and input-subtracted data. The peak differential analysis and PCA analysis was performed using DESeq2^82.
# BRD4 and other BET proteins have previously been implicated largely in transcriptional elongation, particularly in mediating P-TEFb/CDK9 activation of RNA Polymerase II ([…]) elongation activity by phosphorylation of serine 2 of the C-terminal domain (CTD) of Pol II ([…] ser 2 phos). […]
# [3] = system: MYC, FOXO3, p21, BCL6, BRD4 protein levels in KARPAS422 and SUDHL5; assay: Western blots of target proteins in DLBCL cells; assay type: cell-based, human
# Description: Cells were plated at 1 M/mL and treated with drug at indicated timepoints and doses. 2 M Cells were harvested on ice in RIPA buffer (50 mM Tris-HCl pH 8, 150 mM NaCl, 1% NP-40, 0.1% DOC, 1% SDS, protease inhibitor cocktail (homemade), 1 mM DTT) and 1:200 benzonase (Sigma #E1014) was added and incubated for 20 minutes. After 10 minute centrifugation at 14,000 g and 4° C., the supernatant was collected and protein concentration was measured by Bradford.
# Because a high percentage of the TCIP1-treated cells contain fragmented DNA by TUNEL assay at 24 hours (FIG. 31, Panel E), many of the “reduced genes” could reflect DNA fragmentation as part of the apoptotic process and digestion to mononucleosomes. Among the group of genes whose expression was most reduced were MYC and its targets (FIGS. 33B, 36C). The top 100 most TCIP1-reduced genes were examined using ChIP-seq data of human transcription factors in blood cancer cell lines, and found the promoters of TCIP1-inhibited genes highly enriched for MYC binding in multiple datasets (FIG. 33, Panel C). This is significant since many DLBCLs are considered to be MYC-dependent.
# Signaling via NF-kB is known to be repressed by BCL6.
# [4] = after 2 hours, of 51,678 consensus peaks
SMILES,"EC50 ([1]; DLBCL lines including chemotherapy-resistant, TP53-mutant lines, 72 hrs) [nM]","Increase of BRD4 at promoters of BCL6 target genes / genomic BCL6 binding sites ([2]; ChIP-seq, one hour) [%]","H3K27ac peaks decreased [2, 4] [peaks]","H3K27ac peaks increased [2, 4] [peaks]",Time to FOXO3 activation ([3]; 10 nM),"Effect on BRD4 protein levels ([3]; 20 hours, KARPAS422)",Concentration from which the long isoform of BCL6 protein is induced ([3]; DLBCL cell lines) [nM],Concentration that activates FOXO3 ([3]; Western blot) [nM],"Concentration from which MYC protein levels are reduced ([3]; Western blot, DLBCL cells)",Time to reduction of MYC protein levels ([3]; after drug addition) [h],"Cell killing after short exposure and washout ([1]; 10 nM, 4 hours exposure followed by washout)",Time to Pol II serine 2 phosphorylation (transcriptional elongation) at BCL6 targets ([2]; 10 nM) [min],Loss of BRD4 from enhancers and super enhancers ([2]; ChIP-seq),"Fraction of total BRD4 recruited / relocalized to BCL6 target genes ([2]; Karpas 422, one hour)","Concentration that regulates genes critical for DLBCL ([3]; Karpas 422, 24 hours, Western blot) [NM]"
CNC(=O)COc1cc2cc(Nc3nc(N4CCC(C(=O)NCCCCCCCNC(=O)C[C@@H]5N=C(c6ccc(Cl)cc6)c6c(sc(C)c6C)-n6c(C)nnc65)CC4)ncc3Cl)cc(OC)c2n(C)c1=O [TCIP1],1.3,50,70,126,within two hours,did not change substantially,0.5 to 1,0.5,less than 1 nM,≤ 2,–,–,–,–,–
"CNC(=O)COc1cc2cc(Nc3nc(N4CCC(C(=O)NCCCCCCCNC(=O)C[C@@H]5N=C(c6ccc(Cl)cc6)c6c(sc(C)c6C)-n6c(C)nnc65)CC4)ncc3Cl)cc(OC)c2n(C)c1=O [JWZ-7-7, (S)-1-(5-chloro-4-((8-methoxy-1-methyl-3-(2-(methylamino)-2-oxoethoxy)-2-oxo-1,2-dihydroquinolin-6-yl)amino)pyrimidin-2-yl)-N-(7-(2-(4-(4-chlorophenyl)-2,3,9-trimethyl-6H-thieno[3,2-f][1,2,4]triazolo[4,3-a][1,4]diazepin-6-yl)acetamido)heptyl)piperidine-4-carboxamide]",–,–,–,–,–,–,–,–,–,–,robust killing,≤ 15,about 10%,about 10%,< 1
